Experimental data: US5198457A, “Treatment of hyperthyroidism with 1,3-dihydro-1[2-(2-thienyl)alkyl]-2H-imidazole-2-thiones” (Merrell Dow Pharmaceuticals Inc., priority 1992, dated 1993)

Legend:
[1] = Two week rat study: clinical chemistry (cholesterol); assay type: in vivo, Sprague-Dawley rats
Procedure: (§1) Sprague-Dawley rats were divided into groups of five males and five females and administered daily by gavage 0, 50, 100, 200, 300, 500, 700 and 1,000 mg/kg/day for two weeks under both fed and fasted conditions. Behavior of the rats was monitored daily while body weight, food consumption and clinical signs were measured weekly. At the termination of the study, rats were bled for clinical chemistry and hematology determinations. After bleeding, rats were sacrificed and necropsied in order that organs could be examined grossly, and tissue specimens were collected for subsequent microscopic examination.

[2] = Three month rat study, gavage: serum cholesterol; assay type: in vivo, Sprague-Dawley rats
Procedure: (§2) Collectively, these findings are consistent with drug-induced inhibition of thyroid function and resulting morphological alterations due to compensatory stimulation of increased TSH due to decreased secretion of thyroid hormones.
(§3) For this study Sprague-Dawley rats were divided into groups of 33 males and 33 females and administered by gavage 0, 50 and 200 mg/kg/day of 1,3-dihydro-1-[2-(2-thienyl)ethyl]-2H-imidazole-2-thione in 0.5% aqueous methylcellulose for up to three months. Additional pharmacokinetic study of drug levels was performed by bleeding 3 males and 3 females from each group either 2 or 24 hours posdosing on treatment days 1, 45 and 87. Study parameters included daily observation of behavior; weekly observations of physical condition, food consumption and body weight; and terminal ophthalmoscopic evaluation, serum clinical chemistry, hematology, organ weights, and gross and microscopic tissue examinations.

[3] = test system: thyroid follicular epithelium; experiment: Two week rat study, oral gavage: thyroid findings; assay type: in vivo, Sprague-Dawley rats
Procedure: The activity of the compounds of Formula I is illustrated through their effects on thyroid function in the rat.
as §1

thyroid [4] = experiment: Three month rat study, gavage: thyroid histology and thyroid weight; assay type: in vivo, Sprague-Dawley rats; conditions: for Thyroid follicular cell hyperplasia (incidence), treatment: up to three months, gavage; for Thyroid weight, treatment / Thyroid weight, recovery: mean ± standard deviation; for Thyroid weight, recovery: one month recovery
Procedure: as §2, §3

[5] = test system: dopamine beta-hydroxylase; conditions: relative to methimazole analogs with larger 1-alkyl substituents; Fuller et al. 1977; cited from earlier work
thyroid [6] = conditions: Fuller et al. 1977; cited from earlier work
[7] = 200 mg/kg/day, female, P < 0.01 compared to controls

S=c1[nH]ccn1CCc1cccs1 [1,3-Dihydro-1-[2-(2-thienyl)ethyl]-2H-imidazole-2-thione]
Cholesterol level, % of pretest values ([1]; females, doses >200 mg/kg/day): approximately 135%
Cholesterol level, % of pretest values ([1]; males, doses >500 mg/kg/day): approximately 135%
Serum cholesterol, treatment ([2]; 50 mg/kg/day, female (control 71)): 88 mg/dL
Serum cholesterol, recovery ([2]; 50 mg/kg/day, female, one month recovery (control 66)): 86 mg/dL
Serum cholesterol, treatment ([2]; 50 mg/kg/day, male (control 63)): 81 mg/dL
Serum cholesterol, recovery ([2]; 50 mg/kg/day, male, one month recovery (control 75)): 74 mg/dL
Serum cholesterol, treatment ([2]; 200 mg/kg/day, female (control 71)): 105 mg/dL
Serum cholesterol, recovery ([2]; 200 mg/kg/day, female, one month recovery (control 66)): 76 mg/dL
Serum cholesterol, treatment ([2]; 200 mg/kg/day, male (control 63)): 97 mg/dL
Serum cholesterol, recovery ([2]; 200 mg/kg/day, male, one month recovery (control 75)): 76 mg/dL
Thyroid follicular epithelium findings, lower doses ([3]; 100-300 mg/kg/day males, 50-300 mg/kg/day females, two weeks): mainly hypertrophic with minimal colloid involution
Thyroid follicular cell findings, high doses ([3]; >500 mg/kg/day, two weeks): diffuse hyperplasia, hypertrophy, increased mitotic FIGURES, and involution or total absence of luminal colloid
Onset of effect on thyroid follicular epithelium ([3]; oral, 50 to 700 mg/kg/day): three to four
Effect on thyroid follicular epithelium ([3]; oral, 50 to 700 mg/kg/day, two weeks): striking effects on the thyroid follicular epithelium
Effect on thyroid gland at high doses ([3]; rat, high doses): lesions in the thyroid gland and associated clinicopathological findings that indicate thyroid hormone synthesis is reduced or inhibited
Thyroid follicular cell hyperplasia (incidence), treatment (thyroid [4]; 50 mg/kg/day, female): 7/10
Thyroid weight, treatment (thyroid [4]; 50 mg/kg/day, female, P < 0.01 compared to controls): .03 ± .01 gm
Thyroid follicular cell hyperplasia (incidence), recovery (thyroid [4]; 50 mg/kg/day, female, one month recovery from dosing): 0/5
Thyroid weight, recovery (thyroid [4]; 50 mg/kg/day, female): .02 ± .00 gm
Thyroid follicular cell hyperplasia (incidence), treatment (thyroid [4]; 50 mg/kg/day, male): 10/10
Thyroid weight, treatment (thyroid [4]; 50 mg/kg/day, male, P < 0.01 compared to controls): .04 ± .01 gm
Thyroid follicular cell hyperplasia (incidence), recovery (thyroid [4]; 50 mg/kg/day, male, one month recovery from dosing): 0/5
Thyroid weight, recovery (thyroid [4]; 50 mg/kg/day, male): .03 ± .01 gm
Thyroid follicular cell hyperplasia (incidence), treatment (thyroid [4]; 200 mg/kg/day, female): 10/10
Thyroid weight, treatment (thyroid [4]; [7]): .06 ± .03 gm
Thyroid follicular cell hyperplasia (incidence), recovery (thyroid [4]; 200 mg/kg/day, female, one month recovery from dosing): 8/10
Thyroid weight, recovery (thyroid [4]; [7]): .03 ± .01 gm
Thyroid follicular cell hyperplasia (incidence), treatment (thyroid [4]; 200 mg/kg/day, male): 10/10
Thyroid weight, treatment (thyroid [4]; 200 mg/kg/day, male, P < 0.01 compared to controls): .14 ± .08 gm
Thyroid follicular cell hyperplasia (incidence), recovery (thyroid [4]; 200 mg/kg/day, male, one month recovery from dosing): 0/5
Thyroid weight, recovery (thyroid [4]; 200 mg/kg/day, male, P < 0.05 compared to controls): .05 ± .01 gm
Reversibility of thyroid findings (thyroid [4]; one month recovery from dosing): nearly completely reversible
Thyroid effects, three month study (thyroid [4]; single daily doses of 50 and 200 mg/kg/day): profound thyroid effects characterized by thyroid follicular cell hyperplasia, increased thyroid weights and hypercholesteremia

Cn1ccnc1S [methimazole, 1-methyl-2-mercaptoimidazole]
DBH-inhibiting activity [5]: less pronounced than that of methimazole analogs bearing larger 1-alkyl substituents

Sc1nccn1C1CCCCC1 [1-cyclohexyl-2-mercaptoimidazole (CHMI), 1-cyclohexyl-2-mercaptoimidazole]
Antithyroid activity (thyroid [6]): only slight antithyroid activity
DBH-inhibiting activity [5]: greatest DBH inhibition
